Laboratory results published in patent US20070197585A1, “Use of cysteinyl leukotriene 2 receptor antagonists” (priority 2004, published 2007).
pIC50: −log10 of the molar value.

Assays:
CysLT1 receptor = biological target: T1, CysLT1 receptor (Homo sapiens, UniProt Q9Y271); assay: LTD4-induced calcium flux (calcium mobilization, FLIPR) in CysLT1 receptor transfected HEK293T cells; assay type: cell-based; conditions: antagonist dose-response curve, read-out: IC50 of blocking LTD4-induced calcium flux, CysLT1 receptor
T1 construct: expressed in transfected cells; host or cells: HEK293T
T1 sequence (Q9Y271 1-337): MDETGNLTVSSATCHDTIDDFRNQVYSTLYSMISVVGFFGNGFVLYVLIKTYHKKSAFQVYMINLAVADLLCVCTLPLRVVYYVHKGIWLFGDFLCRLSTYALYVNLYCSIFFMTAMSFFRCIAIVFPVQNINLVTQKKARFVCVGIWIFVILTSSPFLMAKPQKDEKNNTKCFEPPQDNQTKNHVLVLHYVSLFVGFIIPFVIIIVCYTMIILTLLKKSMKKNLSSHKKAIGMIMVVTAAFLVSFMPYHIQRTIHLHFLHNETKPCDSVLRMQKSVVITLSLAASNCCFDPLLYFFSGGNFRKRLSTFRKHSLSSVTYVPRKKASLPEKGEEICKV
Experimental: (§1) Compounds may be screened for effects on LTD4 induced calcium mobilization in cells transfected with CysLT2 receptor, according to the following calcium mobilization assay.
(§2) Human embryonic kidney (HEK293T) cells transiently transfected with the CysLT2 receptor using LipofectAMINE™2000 reagent (Life Technologies) or Chinese hamster ovary (CHO-NFAT) cells stably transfected with the CysLT2 type receptor are plated into Poly-D-Lysine treated black-wall microplates (Biocoat™) at 5×10^4 cells per well. Cells are maintained for approximately 24 hours at 37° C. and 5% CO2. After 24 hours, cells are loaded with Fluo4 calcium indicator dye (Molecular Probes) in the presence of 2.5 mM probenecid for one hour. After washing, the cells are treated with agonist, (10 nM LTD4, BioMol), and maximum fluorescence measured in a Molecular Devices Fluorometric Imaging Plate Reader (FLIPR). Compounds screened for antagonism are added five minutes prior to addition of agonist.
Compounds of interest from the CysLT2 receptor screen may also be assayed in a CysLT1 receptor counter screen. Compounds of interest may be assayed using the same protocol described above in cells transfected with the CysLT1 receptor.
(§3) Agonist and Standard Antagonist Functional Characterization on Human CysLT1 and CysLT2 Receptors

CysLT2 receptor = biological target: T2, CysLT2 receptor (Homo sapiens, UniProt Q9NS75); assay: LTD4-induced calcium flux (calcium mobilization, FLIPR) in CysLT2 receptor-transfected cells; assay type: cell-based; conditions: antagonist dose-response curve, read-out: IC50 of blocking LTD4-induced calcium flux, CysLT2 receptor
T2 construct: expressed in transfected cells
T2 sequence (Q9NS75 1-346): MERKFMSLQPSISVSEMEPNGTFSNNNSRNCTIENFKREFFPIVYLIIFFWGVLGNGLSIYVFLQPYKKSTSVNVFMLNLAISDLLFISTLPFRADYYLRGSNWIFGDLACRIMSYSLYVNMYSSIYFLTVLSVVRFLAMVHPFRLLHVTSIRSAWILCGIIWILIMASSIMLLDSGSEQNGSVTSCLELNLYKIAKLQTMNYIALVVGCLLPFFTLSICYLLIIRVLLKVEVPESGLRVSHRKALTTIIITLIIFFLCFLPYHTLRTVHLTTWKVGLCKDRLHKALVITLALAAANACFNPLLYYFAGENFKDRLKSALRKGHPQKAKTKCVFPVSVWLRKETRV
Experimental: as §1, §2, §3

SMILES: CCCCCCCCCc1ccc(C(Sc2cccc(NC(=O)CC(=O)O)c2)C(=O)CCCC(=O)O)cc1 (stereo not drawn) [Compound (I), 6-({3-[(carboxyacetyl)amino]phenyl}thio)-6-(4-nonylphenyl)-5-oxohexanoic acid]
- pIC50 (CysLT1 receptor): > 5.00
- pIC50 (CysLT2 receptor): > 5.00
- melting point: 88 to 91 °C
